Reference: patent US20150218212A1, “FLUORINATED EPOXYKETONE-BASED TETRAPEPTIDE COMPOUNDS AND USES THEREOF AS PROTEASOME INHIBITORS” (FLUORINOV PHARMA INC., priority 2012, published 2015)

How the values were obtained:
Format in all cases: cell-based, human
OVCAR-3 = test: NCI screening panel, OVCAR-3 (Ovarian Cancer)
Procedure: (§1) Representative compounds of Formula I were screened using the National Cancer Institute (NCI) screening panel, which consists of a panel of human tumor cell lines, representing leukemia, melanoma, and cancers of the lung, colon, ovary, breast, prostate and renal system.
(§2) After 24 h, two plates of each cell line are fixed in situ with TCA, to represent a measurement of the cell population for each cell line at the time of drug addition (Tz). Experimental drugs are solubilised in dimethyl sulfoxide at 400-fold the desired final maximum test concentration and stored frozen prior to use. At the time of drug addition, an aliquot of frozen concentrate is thawed and diluted to twice the desired final maximum test concentration with complete medium containing 50 μg/mL gentamicin. Additional four, 10-fold or ½ log serial dilutions are made to provide a total of five drug concentrations plus control. Aliquots of 100 μl of these different drug dilutions are added to the appropriate microtiter wells already containing 100 μl of medium, resulting in the required final drug concentrations.
(§3) Following drug addition, the plates are incubated for an additional 48 h at 37° C., 5% CO2, 95% air, and 100% relative humidity. For adherent cells, the assay is terminated by the addition of cold TCA (trichloroacetic acid). Cells are fixed in situ by the gentle addition of 50 μl of cold 50% (w/v) TCA (final concentration, 10% TCA) and incubated for 60 minutes at 4° C. The supernatant is discarded, and the plates are washed five times with tap water and air dried. Sulforhodamine B (SRB) solution (100 μl) at 0.4% (w/v) in 1% acetic acid is added to each well, and plates are incubated for 10 minutes at room temperature. After staining, unbound dye is removed by washing five times with 1% acetic acid and the plates are air dried. Bound stain is subsequently solubilised with 10 mM trizma base, and the absorbance is read on an automated plate reader at a wavelength of 515 nm. For suspension cells, the methodology is the same except that the assay is terminated by fixing settled cells at the bottom of the wells by gently adding 50 μl of 80% TCA (final concentration, 16% TCA). Using the seven absorbance measurements [time zero, (Tz), control growth, (C), and test growth in the presence of drug at the five concentration levels (Ti)], the percentage growth is calculated at each of the drug concentrations levels. Percentage growth inhibition is calculated as: [(Ti−Tz)/(C−Tz)]×100 for concentrations for which Ti>/=Tz and [(Ti−Tz)/Tz]×100 for concentrations for which Ti<Tz.
(§4) Three dose response parameters are calculated for each experimental agent. Growth inhibition of 50% (GI50) is calculated from [(Ti−Tz)/(C−Tz)]×100=50, which is the drug concentration resulting in a 50% reduction in the net protein increase (as measured by SRB staining) in control cells during the drug incubation. The drug concentration resulting in total growth inhibition (TGI) is calculated from Ti=Tz. The LC50 (concentration of drug resulting in a 50% reduction in the measured protein at the end of the drug treatment as compared to that at the beginning) indicating a net loss of cells following treatment is calculated from [(Ti−Tz)/Tz]×100=−50. Values are calculated for each of these three parameters if the level of activity is reached. However, if the effect is not reached or is exceeded, the value for that parameter is expressed as greater or less than the maximum or minimum concentration tested.

MALME-3M = test: NCI screening panel, MALME-3M (Melanoma)
Procedure: as §1, §2, §3, §4

PC-3 = test: NCI screening panel, PC-3 (Prostate Cancer)
Procedure: as §1, §2, §3, §4

HCC-2998 = test: NCI screening panel, HCC-2998 (Colon Cancer)
Procedure: as §1, §2, §3, §4

SF-295 = test: NCI screening panel, SF-295 (CNS Cancer)
Procedure: as §1, §2, §3, §4

ACHN = test: NCI screening panel, ACHN (Renal Cancer)
Procedure: as §1, §2, §3, §4

OVCAR-8 = test: NCI screening panel, OVCAR-8 (Ovarian Cancer)
Procedure: as §1, §2, §3, §4

UACC-62 = test: NCI screening panel, UACC-62 (Melanoma)
Procedure: as §1, §2, §3, §4

SF-539 = test: NCI screening panel, SF-539 (CNS Cancer)
Procedure: as §1, §2, §3, §4

DU-145 = test: NCI screening panel, DU-145 (Prostate Cancer)
Procedure: as §1, §2, §3, §4

NCI-H322M = test: NCI screening panel, NCI-H322M (Non-Small Cell Lung Cancer)
Procedure: as §1, §2, §3, §4

UO-31 = test: NCI screening panel, UO-31 (Renal Cancer)
Procedure: as §1, §2, §3, §4

COLO 205 = test: NCI screening panel, COLO 205 (Colon Cancer)
Procedure: as §1, §2, §3, §4

SK-MEL-5 = test: NCI screening panel, SK-MEL-5 (Melanoma)
Procedure: as §1, §2, §3, §4

SNB-19 = test: NCI screening panel, SNB-19 (CNS Cancer)
Procedure: as §1, §2, §3, §4

Q: What does the source list for `CC(C)C[C@H](NC(=O)[C@H](COC(F)F)NC(=O)[C@H](COC(F)F)NC(=O)[C@H](COC(F)F)NC(=O)CN1CCOCC1)C(=O)[C@@]1(C)CO1` [Example 17, (2S)-3-(difluoromethoxy)-N-[(1S)-1-(difluoromethoxymethyl)-2-[[(1S)-1-(difluoro-methoxymethyl)-2-[[(1S)-3-methyl-1-[(2R)-2-methyloxirane-2-carbonyl]butyl]amino]-2-oxo-ethyl]amino]-2-oxo-ethyl]-2-[(2-mor-pholinoacetyl)amino]-propanamide]?
A: Log10GI50 (OVCAR-3): −7.30; Log10LC50 (OVCAR-3): −6.05; Log10TGI50 (OVCAR-3): −6.65; Log10GI50 (MALME-3M): −6.76; Log10LC50 (MALME-3M): >−4.00; Log10TGI50 (MALME-3M): −6.09; Log10GI50 (PC-3): −6.76; Log10LC50 (PC-3): −5.02; Log10TGI50 (PC-3): −6.12; Log10GI50 (HCC-2998): −6.74; Log10LC50 (HCC-2998): −6.19; Log10TGI50 (HCC-2998): −6.46; Log10GI50 (SF-295): −6.82; Log10LC50 (SF-295): −5.37; Log10TGI50 (SF-295): −6.20; Log10GI50 (ACHN): −5.55; Log10LC50 (ACHN): >−4.00; Log10TGI50 (ACHN): >−4.00; Log10GI50 (OVCAR-8): −6.31; Log10LC50 (OVCAR-8): >−4.00; Log10TGI50 (OVCAR-8): −5.25; Log10GI50 (UACC-62): −7.14; Log10LC50 (UACC-62): −5.39; Log10TGI50 (UACC-62): −6.42; Log10GI50 (SF-539): −7.38; Log10TGI50 (SF-539): −6.67; Log10GI50 (DU-145): −7.07; Log10LC50 (DU-145): >−4.00; Log10TGI50 (DU-145): −4.84; Log10GI50 (NCI-H322M): −6.58; Log10LC50 (NCI-H322M): −4.92; Log10TGI50 (NCI-H322M): −5.73; Log10GI50 (UO-31): −5.40; Log10LC50 (UO-31): −4.00; Log10TGI50 (UO-31): −4.65; Log10GI50 (COLO 205): −6.62; Log10LC50 (COLO 205): >−4.00; Log10TGI50 (COLO 205): −4.76; Log10GI50 (SK-MEL-5): −7.10; Log10LC50 (SK-MEL-5): −6.01; Log10TGI50 (SK-MEL-5): −6.53; Log10GI50 (SNB-19): −7.16; Log10LC50 (SNB-19): >−4.00; Log10TGI50 (SNB-19): −4.67
